Measurements reported in US8822413B2, “Bifunctional hormone having alpha-MSH activity and natriuretic peptide activity and uses thereof” (Theratechnologies Inc., priority 2007, dated 2014).
Bridge positions count the residues as written; N and C are the ends. Square brackets hold non-standard residues; d marks the D form. Peptide text beside a SMILES is read from it.

Legend:
ANP receptor = target: T1, ANP receptor (Sus scrofa, UniProt F1SFW3); experiment: cGMP production in ANP receptor-expressing LLC-PK1 cells; assay type: cell-based; settings: 30 min stimulation, 10^-6M through 10^-12M, NR = No response detected
T1 construct: ANP receptor-expressing LLC-PK1 cells; endogenous in cells; host or cells: LLC-PK1 cells
T1 sequence (F1SFW3 29-1057): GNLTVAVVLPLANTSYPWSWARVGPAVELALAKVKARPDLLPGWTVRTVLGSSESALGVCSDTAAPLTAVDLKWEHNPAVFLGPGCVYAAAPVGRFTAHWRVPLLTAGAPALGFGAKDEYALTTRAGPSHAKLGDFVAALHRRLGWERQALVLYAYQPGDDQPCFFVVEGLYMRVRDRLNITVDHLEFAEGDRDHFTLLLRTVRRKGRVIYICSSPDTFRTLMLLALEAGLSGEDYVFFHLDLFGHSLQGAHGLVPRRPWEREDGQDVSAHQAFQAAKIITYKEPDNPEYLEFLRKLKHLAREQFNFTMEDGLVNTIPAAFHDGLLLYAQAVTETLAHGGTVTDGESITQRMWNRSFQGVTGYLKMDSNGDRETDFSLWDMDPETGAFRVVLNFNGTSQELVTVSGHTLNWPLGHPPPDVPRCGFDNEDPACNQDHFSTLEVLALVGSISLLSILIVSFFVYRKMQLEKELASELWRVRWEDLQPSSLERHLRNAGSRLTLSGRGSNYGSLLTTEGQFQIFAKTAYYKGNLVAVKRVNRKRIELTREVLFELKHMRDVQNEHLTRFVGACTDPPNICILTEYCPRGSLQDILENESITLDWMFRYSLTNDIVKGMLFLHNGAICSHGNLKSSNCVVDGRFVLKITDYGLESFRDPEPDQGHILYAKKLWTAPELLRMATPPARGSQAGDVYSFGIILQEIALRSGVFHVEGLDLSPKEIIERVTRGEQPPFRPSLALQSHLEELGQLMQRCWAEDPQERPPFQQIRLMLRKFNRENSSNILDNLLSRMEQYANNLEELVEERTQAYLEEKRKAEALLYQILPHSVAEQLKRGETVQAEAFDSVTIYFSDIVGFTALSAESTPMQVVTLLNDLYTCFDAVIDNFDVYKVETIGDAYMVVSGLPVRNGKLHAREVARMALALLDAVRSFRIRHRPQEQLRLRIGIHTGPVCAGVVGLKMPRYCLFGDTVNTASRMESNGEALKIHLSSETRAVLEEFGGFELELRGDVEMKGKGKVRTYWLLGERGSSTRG
Procedure: The bifunctional hormone was tested on ANP receptor-expressing LLC-PK1 cells and on MCR1 receptor-expressing B16-F1 cells. Both cell types were cultured 24 hours before the stimulation, in 96-well plates, at a concentration of 1.0×10^5 cells/ml. Before stimulation, cells were starved 2 hours in DPBS only and incubated 10 min in assay buffer (DPBS containing 20 mM HEPES, 0.1% BSA and 500 μM IBMX). The dose response curve of the bifunctional hormone was done for 30 minutes with concentrations of 10^−6M through 10^−12M. Supernatant was collected and cAMP (B16-F1) or cGMP (LLC-PK1) was measured with a radiolabeled kit from GE Healthcare Company.

Sprague-Dawley (SD) rats [1] = experiment: Effect on mean arterial pressure (MAP) of anesthetized rat, iv bolus and iv infusion; assay type: in vivo
Sprague-Dawley (SD) rats [2] = experiment: Prophylactic treatment, acute kidney dysfunction following renal ischemia (renal artery clamping); assay type: in vivo, rat
Procedure: Plasma creatinine and urea were determined at different times. Data were analyzed by two way ANOVA using Bonferroni test for significance against the saline-treated group (n=3 per group; sal n=6).
Animals. Sprague-Dawley (SD) rats (male, weighing from 300 to 330 g) were obtained from Charles River Inc. Animals were maintained on standard laboratory chow under a 12:12 light:dark cycle.
Surgical preparation. The rats were anesthetized with Isoflurane 2.5% for the duration of the experiment. Animals were placed under radiant warmer to keep the temperature at 37.5° C. A blood sample (0.5 ml) was collected via tail vein artery before the renal artery clamping. Once the animal was anesthetized, placed in a supine position, a 1.5 cm flank incision was made on the right side of the abdominal wall. The right kidney was then exposed and the ureter, renal artery and renal vein were carefully dissected and ligated. The kidney was removed after cutting renal pedicle. A same incision was made on the left side of the abdominal wall. The left kidney is exposed and the renal vascular pedicle is carefully dissected. The renal vascular pedicle was then occluded by placing a vascular clip (Micro Serrefine™, Fine Science Tools) for a period of 30 or 45 minutes. This renal vascular pedicle clamping produced an acute renal artery occlusion (RAO). The kidney was inspected for ischemia as well as for good reperfusion after removing vascular clip for 2 minutes. The wound of abdominal wall was closed in two layers. The muscular layer was closed with a running 3-0 silk suture and the skin was closed with suture clips (Fine Science Tools). 21 hours after right nephrectomy and left renal artery clipping procedure, the rats were put in the metabolic cages for urine collection (in pre-weighed Tube 50 ml) for 3 hours. Urine volume was measured by weighing the tube containing urine. Then, the animals were anesthetized with Isoflurane 2.5%. Left kidney was removed and kept in formalin for future histology. […]

Sprague-Dawley (SD) rats [3] = experiment: Post-injury (therapeutic) treatment, acute kidney dysfunction following renal ischemia; assay type: in vivo, rat; settings: 15 μg/kg/h for 2 h after clamp removal, FIG. 4
Procedure: Peptides #2 and #33 were infused for 2 h after the removal of the renal clamps in the rat model of renal ischemia. Blood samples were collected at the indicated times and plasma creatinine and urea were determined. Data were analyzed by two way ANOVA using Bonferroni test for significance against the saline-treated group (n=3 per group; sal n=6);
Surgical preparation. The rats were anesthetized with Isoflurane 2.5% for the duration of the experiment. Animals were placed under radiant warmer to keep the temperature at 37.5° C. A blood sample (0.5 ml) was collected via tail vein artery before the renal artery clamping. Once the animal was anesthetized, placed in a supine position, a 1.5 cm flank incision was made on the right side of the abdominal wall. The right kidney was then exposed and the ureter, renal artery and renal vein were carefully dissected and ligated. The kidney was removed after cutting renal pedicle. A same incision was made on the left side of the abdominal wall. The left kidney is exposed and the renal vascular pedicle is carefully dissected. The renal vascular pedicle was then occluded by placing a vascular clip (Micro Serrefine™, Fine Science Tools) for a period of 30 or 45 minutes. This renal vascular pedicle clamping produced an acute renal artery occlusion (RAO). The kidney was inspected for ischemia as well as for good reperfusion after removing vascular clip for 2 minutes. The wound of abdominal wall was closed in two layers. The muscular layer was closed with a running 3-0 silk suture and the skin was closed with suture clips (Fine Science Tools). 21 hours after right nephrectomy and left renal artery clipping procedure, the rats were put in the metabolic cages for urine collection (in pre-weighed Tube 50 ml) for 3 hours. Urine volume was measured by weighing the tube containing urine. Then, the animals were anesthetized with Isoflurane 2.5%. Left kidney was removed and kept in formalin for future histology. Blood was collected by cardiac puncture into a heparinized syringe (3 ml) and immediately transferred into appropriately labeled tubes that contain heparin as the anticoagulant. Following collection, all blood samples were kept on ice and centrifuged for 2 min at 13000 rpm. Plasma and urine aliquots (400 μl) were removed and stored at −80° C.
Preparation of dosing solutions. Peptides (#2 and #33) were also made up fresh daily in a 0.1% HSA saline solution (33 μl of 30% HSA in […] saline) at concentration of 100 μg/100 μl. […]
In order to verify if short infusions of the peptides post-injury (therapeutic treatment) would be beneficial to reduce kidney injury, peptides #2 or #33 were infused at 15 μg/kg/h for 2 h after renal artery clamp removal. Plasma creatinine and urea were determined at different times. […]

[4] = 15 μg/kg/h infused 1 h before and 1 h after renal artery clamping, vs saline group, each time point, FIG. 3
[5] = later time points 21 h and 27 h

CC[C@H](C)[C@@H]1NC(=O)[C@H](CCCNC(=N)N)NC(=O)[C@H](CC(=O)O)NC(=O)[C@H](CCSC)NC(=O)[C@H](CCCNC(=N)N)NC(=O)CNC(=O)CNC(=O)[C@H](Cc2ccccc2)NC(=O)[C@@H](NC(=O)[C@H](CCSC)NC(=O)[C@@H]2CCCN2C(=O)[C@H](CCCCN)NC(=O)CNC(=O)[C@H](Cc2c[nH]c3ccccc23)NC(=O)[C@H](CCCNC(=N)N)NC(=O)[C@@H](Cc2ccccc2)NC(=O)[C@H](Cc2c[nH]cn2)NC(C)=O)CSSC[C@@H](C(=O)N[C@@H](CC(N)=O)C(=O)N[C@@H](CO)C(=O)N[C@@H](Cc2ccccc2)C(=O)N[C@@H](CCCNC(=N)N)C(=O)N[C@@H](Cc2ccc(O)cc2)C(N)=O)NC(=O)CNC(=O)[C@H](CC(C)C)NC(=O)CNC(=O)[C@H](CO)NC(=O)[C@H](CCC(N)=O)NC(=O)[C@H](C)NC(=O)CNC1=O [SEQ ID NO: 33, Ac-H-f-R-W-G-K-P-M-[C-F-G-G-R-M-D-R-I-G-A-Q-S-G-L-G-C]-N-S-F-R-Y-NH2] (Ac-H[dF]RWGKPMCFGGRMDRIGAQSGLGCNSFRY-NH2; disulfide 9-25)
EC50 (ANP receptor): 69 nM | effect on MAP of continuous intravenous infusion (Sprague-Dawley (SD) rats [1]; 30 μg/kg/h iv infusion, MAP recorded over an hour, FIG. 1B): well tolerated | bolus iv dose tolerated (MAP) (Sprague-Dawley (SD) rats [1]; anesthetized SD rat, incremental iv bolus doses, FIG. 1A): up to 20 μg/kg | blood urea nitrogen (BUN) (Sprague-Dawley (SD) rats [2]; [4]): significantly reduced the elevation | plasma creatinine (Sprague-Dawley (SD) rats [2]; [4]): significantly reduced the elevation | diminishing kidney injury, compared with native ANP (Sprague-Dawley (SD) rats [2]; prophylactic use, 15 μg/kg/h): as effective as native ANP | BUN (Sprague-Dawley (SD) rats [3]; at 4 h): prevented the rise | plasma creatinine (Sprague-Dawley (SD) rats [3]; at 4 h): prevented the rise | reducing BUN levels, compared with native ANP (Sprague-Dawley (SD) rats [3]; [5]): more effective than native ANP | reducing creatinine levels, compared with native ANP (Sprague-Dawley (SD) rats [3]; [5]): more effective than native ANP
